Measured values from US8313771B2, “Phosphazene hydrogels with chemical corss-link, preparation method thereof and use thereof” (Korea Institute of Science and Technology, priority 2007, dated 2012).

conditions: pH 7.4
Protocol: The solutions were put into a chamber of a Brookfield DV-III+ Rheometer equipped with a thermostatic bath (TC-501). The sol-gel phase transition was observed while raising the temperature at the rate of 0.04° C./min and a shear rate of 0.1 to 1.7 per second.
(maximum) gelling temp. (temperature)” means the temperature where the viscosity of the polymer solution reaches the maximum point, and the term “Max. gel solidity” means the maximum viscosity of the polymer solution.

First: poly[(isoleucine ethyl ester)(aminomethoxypolyethylene glycol 550)(aminoethylmethacrylate)phosphazene] [Example 4]
Second: [(isoleucine ethyl ester)(aminomethoxypolyethylene glycol 550)(aminoethylmethacrylate)phosphazene] [Example 2]
The Max. gelling temp. of the first is higher: 39 °C for the first, 28 °C for the second.

First: poly[(isoleucine ethyl ester)(aminomethoxypolyethylene glycol 550)(tyramine)phosphazene] [Example 18]
Second: poly[(isoleucine ethyl ester)(aminomethoxypolyethylene glycol 550)(cysteine ethyl ester)phosphazene] [Example 10]
The Max. gelling temp. of the first is higher: 34 °C for the first, 32 °C for the second.
